Residue numbers refer to the chain shown, from its start.
Tests used:
Assay in all cases: HPTLC autoradiography of metabolites, insect-cell microsomes
Format in all cases: biochemical
Details in all cases: NADPH, pH 7.5, 25 C, co-expressed reductase and b5; labelled compound; product 4'-HO-permethrin
CYP6BB2 = target: T1, CYP6BB2 (Aedes aegypti, UniProt Q16F58)
T1 construct: gene 5565578; full-length cDNA from SP strain, baculovirus/Sf9 (expressSF+) microsomes, co-expressed with A. aegypti P450 reductase and cytochrome b5; with NADPH--cytochrome P450 reductase; Cytochrome b5
T1 sequence (Q16F58 1-507): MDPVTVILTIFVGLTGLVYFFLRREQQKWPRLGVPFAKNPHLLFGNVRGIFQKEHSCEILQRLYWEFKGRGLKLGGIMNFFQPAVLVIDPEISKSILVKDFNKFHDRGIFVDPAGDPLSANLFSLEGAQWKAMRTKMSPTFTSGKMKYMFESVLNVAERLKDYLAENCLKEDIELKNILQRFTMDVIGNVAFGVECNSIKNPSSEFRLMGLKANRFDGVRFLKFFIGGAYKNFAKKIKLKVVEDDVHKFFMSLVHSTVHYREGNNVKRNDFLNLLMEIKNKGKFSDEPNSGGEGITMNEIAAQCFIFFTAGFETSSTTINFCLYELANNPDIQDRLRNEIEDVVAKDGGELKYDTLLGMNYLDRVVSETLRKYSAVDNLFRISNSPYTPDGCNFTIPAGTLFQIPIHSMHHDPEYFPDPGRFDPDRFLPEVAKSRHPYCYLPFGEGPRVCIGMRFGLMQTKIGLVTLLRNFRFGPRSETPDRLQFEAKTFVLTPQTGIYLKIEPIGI

CYP9M6v2 = target: T2, CYP9M6v2 (Aedes aegypti, UniProt X5HYQ8)
T2 construct: full-length cDNA from SP strain (533 residues), baculovirus/Sf9 (expressSF+) microsomes, co-expressed with A. aegypti P450 reductase and cytochrome b5; with NADPH--cytochrome P450 reductase; Cytochrome b5
T2 sequence (X5HYQ8 1-533): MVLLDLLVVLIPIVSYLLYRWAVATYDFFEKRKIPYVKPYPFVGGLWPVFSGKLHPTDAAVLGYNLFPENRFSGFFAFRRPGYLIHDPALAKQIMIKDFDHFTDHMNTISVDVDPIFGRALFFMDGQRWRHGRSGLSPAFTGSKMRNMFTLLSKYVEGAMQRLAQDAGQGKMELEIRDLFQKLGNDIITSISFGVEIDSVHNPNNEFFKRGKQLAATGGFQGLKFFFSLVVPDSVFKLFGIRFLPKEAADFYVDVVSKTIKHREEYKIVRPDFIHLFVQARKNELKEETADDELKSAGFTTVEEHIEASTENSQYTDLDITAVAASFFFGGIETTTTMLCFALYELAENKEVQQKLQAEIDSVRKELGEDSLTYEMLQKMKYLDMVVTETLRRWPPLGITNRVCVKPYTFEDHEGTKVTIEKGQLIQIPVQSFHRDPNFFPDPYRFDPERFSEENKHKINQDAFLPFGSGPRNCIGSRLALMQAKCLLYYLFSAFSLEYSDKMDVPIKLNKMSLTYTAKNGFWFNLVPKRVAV

CYP9M6v1 = target: T3, CYP9M6v1 (Aedes aegypti, UniProt X5I1U9)
T3 construct: full-length cDNA from SP strain (533 residues), baculovirus/Sf9 (expressSF+) microsomes, co-expressed with A. aegypti P450 reductase and cytochrome b5; with NADPH--cytochrome P450 reductase; Cytochrome b5
T3 sequence (X5I1U9 1-533): T2 sequence (X5HYQ8 1-533) with G170R, I176V, E348G, D370G, M376V, V527L, R530K

How did the “HPTLC autoradiography of metabolites, insect-cell microsomes” value (shortened to “HPTLC autoradiography of metabolites”) (CYP6BB2) turn out when `CC1(C)C(C=C(Cl)Cl)C1C(=O)OCc1cccc(Oc2ccccc2)c1` (stereo not drawn) [[14C]-(1RS)-trans-permethrin] was run?
The value was “CYP6BB2 exhibited strong metabolic activity for permethrin”.

And the “HPTLC autoradiography of metabolites” value (CYP9M6v2)?
Its value is “Both CYP9M6v1 and CYP9M6v2 demonstrated relatively low but consistent permethrin metabolism”.

What about the “HPTLC autoradiography of metabolites” value (CYP9M6v1) of the same molecule?
Its value is “Both CYP9M6v1 and CYP9M6v2 demonstrated relatively low but consistent permethrin metabolism”.
